This assay has as its system Rice Blast. Details: species or system Magnaporthe oryzae. The settings on record: in vivo.

For the molecule `COc1ccnc(C(=O)N[C@H]2COC(=O)[C@H](Cc3ccccc3)[C@@H](OC(=O)C(C)C)[C@H](C)OC2=O)c1OCOC(=O)C(C)C` [Compound I], the “Flag Leaf (% INFECT)” value is “B (key: A: 1-25; B: 26-50; C: 51-75; D: 76-100; E: Not tested)”, the “Panicles (% INCID)” value is “B (key: A: 1-25; B: 26-50; C: 51-75; D: 76-100; E: Not tested)” and the “Panicles (% INFECT)” value is on record as “B (key: A: 1-25; B: 26-50; C: 51-75; D: 76-100; E: Not tested)”.
